Results reported in ChEMBL document CHEMBL1155237, “Selective inhibitors of the mutant B-Raf pathway: discovery of a potent and orally bioavailable aminoisoquinoline” (J Med Chem, 2009).

Experiments:
[1] = target: Vascular endothelial growth factor receptor 2 (Homo sapiens, UniProt P35968); test: Inhibition of KDR
[2] = target: Tyrosine-protein kinase Lck (Homo sapiens, UniProt P06239); test: Inhibition of LCK
[3] = Clearance in Sprague-Dawley rat at 2 mg/kg, iv and 5 mg/kg, po; type: ADME, organism-based; conditions: in vivo
[4] = target: Dual specificity mitogen-activated protein kinase kinase 6 (Homo sapiens) (UniProt P52564); test: Inhibition of MEK6 assessed as enzyme activity at 1 uM relative to untreated control; set-up: scale not given: the % may be the effect or the level left
[5] = target: Serine/threonine-protein kinase Nek1 (Homo sapiens) (UniProt Q96PY6); test: Inhibition of NEK1 assessed as enzyme activity at 1 uM relative to untreated control; set-up: scale not given: the % may be the effect or the level left
[6] = target: Serine/threonine-protein kinase Nek2 (Homo sapiens) (UniProt P51955); test: Inhibition of NEK2 assessed as enzyme activity at 1 uM relative to untreated control; set-up: scale not given: the % may be the effect or the level left
[7] = target: Tyrosine-protein kinase JAK3 (Homo sapiens) (UniProt P52333); test: Inhibition of JAK3 kinase domain 2 assessed as enzyme activity at 1 uM relative to untreated control; set-up: scale not given: the % may be the effect or the level left
[8] = tested on: Mast/stem cell growth factor receptor Kit (Homo sapiens), P10721 [D816V]; test: Inhibition of KIT D816V mutant assessed as enzyme activity at 1 uM relative to untreated control; set-up: scale not given: the % may be the effect or the level left
[9] = tested on: Mast/stem cell growth factor receptor Kit (Homo sapiens), P10721 [V559D,V654A]; test: Inhibition of KIT V559D,V654A mutant assessed as enzyme activity at 1 uM relative to untreated control; set-up: scale not given: the % may be the effect or the level left
[10] = target: Serine/threonine-protein kinase STK11 (Homo sapiens) (UniProt Q15831); test: Inhibition of LKB1 assessed as enzyme activity at 1 uM relative to untreated control; set-up: scale not given: the % may be the effect or the level left
[11] = target: Cyclin-dependent kinase 11A (Homo sapiens) (UniProt Q9UQ88); test: Inhibition of CDC2L2 assessed as enzyme activity at 1 uM relative to untreated control; set-up: scale not given: the % may be the effect or the level left
[12] = target: Dual specificity protein kinase CLK4 (Homo sapiens) (UniProt Q9HAZ1); test: Inhibition of CLK4 assessed as enzyme activity at 1 uM relative to untreated control; set-up: scale not given: the % may be the effect or the level left
[13] = target: Macrophage colony-stimulating factor 1 receptor (Homo sapiens) (UniProt P07333); test: Inhibition of CSF1R assessed as enzyme activity at 1 uM relative to untreated control; set-up: scale not given: the % may be the effect or the level left
[14] = target: cGMP-dependent protein kinase 2 (Homo sapiens) (UniProt Q13237); test: Inhibition of PRKG2 assessed as enzyme activity at 1 uM relative to untreated control; set-up: scale not given: the % may be the effect or the level left
[15] = target: Proto-oncogene tyrosine-protein kinase receptor Ret (Homo sapiens) (UniProt P07949); test: Inhibition of RET assessed as enzyme activity at 1 uM relative to untreated control; set-up: scale not given: the % may be the effect or the level left
[16] = target: Receptor-interacting serine/threonine-protein kinase 2 (Homo sapiens) (UniProt O43353); test: Inhibition of RIPK2 assessed as enzyme activity at 1 uM relative to untreated control; set-up: scale not given: the % may be the effect or the level left
[17] = target: Ribosomal protein S6 kinase alpha-2 (Homo sapiens) (UniProt Q15349); test: Inhibition of RPS6KA2 kinase domain 2 assessed as enzyme activity at 1 uM relative to untreated control; set-up: scale not given: the % may be the effect or the level left
[18] = target: Ribosomal protein S6 kinase alpha-6 (Homo sapiens) (UniProt Q9UK32); test: Inhibition of RPS6KA6 kinase domain 2 assessed as enzyme activity at 1 uM relative to untreated control; set-up: scale not given: the % may be the effect or the level left
[19] = target: SRSF protein kinase 1 (Homo sapiens) (UniProt Q96SB4); test: Inhibition of SRPK1 assessed as enzyme activity at 1 uM relative to untreated control; set-up: scale not given: the % may be the effect or the level left
[20] = target: SRSF protein kinase 2 (Homo sapiens) (UniProt P78362); test: Inhibition of SRPK2 assessed as enzyme activity at 1 uM relative to untreated control; set-up: scale not given: the % may be the effect or the level left
[21] = target: Death-associated protein kinase 1 (Homo sapiens) (UniProt P53355); test: Inhibition of DAPK1 assessed as enzyme activity at 1 uM relative to untreated control; set-up: scale not given: the % may be the effect or the level left
[22] = target: Serine/threonine-protein kinase DCLK2 (Homo sapiens) (UniProt Q8N568); test: Inhibition of DCAMKL2 assessed as enzyme activity at 1 uM relative to untreated control; set-up: scale not given: the % may be the effect or the level left
[23] = target: Serine/threonine-protein kinase MRCK gamma (Homo sapiens) (UniProt Q6DT37); test: Inhibition of DMPK2 assessed as enzyme activity at 1 uM relative to untreated control; set-up: scale not given: the % may be the effect or the level left
A-375 = test: Antitumor activity against human A375 SQ2 cells xenografted in po dosed CD1 mouse assessed as inhibition of tumor growth administered once daily for 14 days; type: functional; conditions: 336 h
[24] = target: Tyrosine-protein kinase ABL1 (Homo sapiens) (UniProt P00519); test: Inhibition of ABL1 assessed as enzyme activity at 1 uM relative to untreated control; set-up: scale not given: the % may be the effect or the level left
[25] = tested on: Tyrosine-protein kinase ABL1 (Homo sapiens), P00519 [Y253F]; test: Inhibition of ABL1 Y253F mutant assessed as enzyme activity at 1 uM relative to untreated control; set-up: scale not given: the % may be the effect or the level left
[26] = target: Activin receptor type-2B (Homo sapiens) (UniProt Q13705); test: Inhibition of ACVR2B assessed as enzyme activity at 1 uM relative to untreated control; set-up: scale not given: the % may be the effect or the level left
[27] = target: Serine/threonine-protein kinase PAK 6 (Homo sapiens) (UniProt Q9NQU5); test: Inhibition of PAK6 assessed as enzyme activity at 1 uM relative to untreated control; set-up: scale not given: the % may be the effect or the level left
[28] = tested on: Phosphatidylinositol 4,5-bisphosphate 3-kinase catalytic subunit alpha isoform (Homo sapiens), P42336 [E545K]; test: Inhibition of PIK3CA E545K mutant assessed as enzyme activity at 1 uM relative to untreated control; set-up: scale not given: the % may be the effect or the level left
[29] = target: Protein kinase C eta type (Homo sapiens) (UniProt P24723); test: Inhibition of PRKCH assessed as enzyme activity at 1 uM relative to untreated control; set-up: scale not given: the % may be the effect or the level left
[30] = target: Protein kinase C theta type (Homo sapiens) (UniProt Q04759); test: Inhibition of PRKCQ assessed as enzyme activity at 1 uM relative to untreated control; set-up: scale not given: the % may be the effect or the level left
[31] = target: Tyrosine-protein kinase SYK (Homo sapiens) (UniProt P43405); test: Inhibition of SYK assessed as enzyme activity at 1 uM relative to untreated control; set-up: scale not given: the % may be the effect or the level left
[32] = target: TGF-beta receptor type-2 (Homo sapiens) (UniProt P37173); test: Inhibition of TGFBR2 assessed as enzyme activity at 1 uM relative to untreated control; set-up: scale not given: the % may be the effect or the level left
[33] = target: Serine/threonine-protein kinase tousled-like 2 (Homo sapiens) (UniProt Q86UE8); test: Inhibition of TLK2 assessed as enzyme activity at 1 uM relative to untreated control; set-up: scale not given: the % may be the effect or the level left
[34] = target: High affinity nerve growth factor receptor (Homo sapiens) (UniProt P04629); test: Inhibition of TRKA assessed as enzyme activity at 1 uM relative to untreated control; set-up: scale not given: the % may be the effect or the level left
[35] = target: Wee1-like protein kinase 2 (Homo sapiens) (UniProt P0C1S8); test: Inhibition of WEE2 assessed as enzyme activity at 1 uM relative to untreated control; set-up: scale not given: the % may be the effect or the level left
[36] = target: Serine/threonine-protein kinase 32C (Homo sapiens) (UniProt Q86UX6); test: Inhibition of YANK3 assessed as enzyme activity at 1 uM relative to untreated control; set-up: scale not given: the % may be the effect or the level left
[37] = target: Tyrosine-protein kinase ZAP-70 (Homo sapiens) (UniProt P43403); test: Inhibition of ZAP70 assessed as enzyme activity at 1 uM relative to untreated control; set-up: scale not given: the % may be the effect or the level left
Tyrosine-protein kinase ZAP-70 (Homo sapiens), sequence (P43403 whole entry): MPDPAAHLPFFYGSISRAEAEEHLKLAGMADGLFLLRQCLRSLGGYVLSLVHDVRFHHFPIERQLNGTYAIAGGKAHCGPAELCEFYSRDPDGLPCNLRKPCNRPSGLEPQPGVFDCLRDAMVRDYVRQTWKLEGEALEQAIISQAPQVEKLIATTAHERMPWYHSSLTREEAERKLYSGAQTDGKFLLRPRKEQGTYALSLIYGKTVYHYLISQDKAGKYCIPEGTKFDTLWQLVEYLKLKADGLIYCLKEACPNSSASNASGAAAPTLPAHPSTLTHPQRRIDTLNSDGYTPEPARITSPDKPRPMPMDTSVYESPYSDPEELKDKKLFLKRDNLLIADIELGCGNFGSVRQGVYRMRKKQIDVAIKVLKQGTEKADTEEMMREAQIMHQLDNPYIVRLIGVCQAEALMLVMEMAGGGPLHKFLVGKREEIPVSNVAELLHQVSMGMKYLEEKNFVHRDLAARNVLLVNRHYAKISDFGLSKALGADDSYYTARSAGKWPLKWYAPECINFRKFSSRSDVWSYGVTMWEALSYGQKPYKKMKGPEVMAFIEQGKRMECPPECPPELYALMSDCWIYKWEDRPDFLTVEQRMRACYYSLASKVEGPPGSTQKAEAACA

Ribosomal protein S6 kinase alpha-2 (Homo sapiens), sequence (Q15349 whole entry, the tested form may be a part): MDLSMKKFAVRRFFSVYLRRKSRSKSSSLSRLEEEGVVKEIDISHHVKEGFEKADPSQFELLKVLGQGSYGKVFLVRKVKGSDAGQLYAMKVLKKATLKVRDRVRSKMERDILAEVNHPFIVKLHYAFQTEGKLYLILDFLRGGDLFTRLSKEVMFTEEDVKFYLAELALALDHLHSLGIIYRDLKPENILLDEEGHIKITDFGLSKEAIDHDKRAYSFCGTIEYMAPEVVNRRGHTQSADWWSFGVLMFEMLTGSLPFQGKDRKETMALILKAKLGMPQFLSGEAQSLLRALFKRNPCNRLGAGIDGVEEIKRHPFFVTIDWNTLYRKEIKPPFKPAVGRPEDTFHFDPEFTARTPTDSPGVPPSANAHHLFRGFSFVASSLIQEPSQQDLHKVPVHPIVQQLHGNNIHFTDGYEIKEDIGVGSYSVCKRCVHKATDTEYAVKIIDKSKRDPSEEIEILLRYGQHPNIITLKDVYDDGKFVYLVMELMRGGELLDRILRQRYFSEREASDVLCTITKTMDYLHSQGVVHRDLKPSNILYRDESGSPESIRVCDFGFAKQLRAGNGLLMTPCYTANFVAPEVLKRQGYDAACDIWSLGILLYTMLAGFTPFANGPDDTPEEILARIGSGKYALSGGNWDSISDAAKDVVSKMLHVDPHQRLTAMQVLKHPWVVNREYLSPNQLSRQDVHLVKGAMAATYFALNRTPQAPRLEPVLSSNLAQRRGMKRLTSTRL
Protein kinase C eta type (Homo sapiens), sequence (P24723 whole entry): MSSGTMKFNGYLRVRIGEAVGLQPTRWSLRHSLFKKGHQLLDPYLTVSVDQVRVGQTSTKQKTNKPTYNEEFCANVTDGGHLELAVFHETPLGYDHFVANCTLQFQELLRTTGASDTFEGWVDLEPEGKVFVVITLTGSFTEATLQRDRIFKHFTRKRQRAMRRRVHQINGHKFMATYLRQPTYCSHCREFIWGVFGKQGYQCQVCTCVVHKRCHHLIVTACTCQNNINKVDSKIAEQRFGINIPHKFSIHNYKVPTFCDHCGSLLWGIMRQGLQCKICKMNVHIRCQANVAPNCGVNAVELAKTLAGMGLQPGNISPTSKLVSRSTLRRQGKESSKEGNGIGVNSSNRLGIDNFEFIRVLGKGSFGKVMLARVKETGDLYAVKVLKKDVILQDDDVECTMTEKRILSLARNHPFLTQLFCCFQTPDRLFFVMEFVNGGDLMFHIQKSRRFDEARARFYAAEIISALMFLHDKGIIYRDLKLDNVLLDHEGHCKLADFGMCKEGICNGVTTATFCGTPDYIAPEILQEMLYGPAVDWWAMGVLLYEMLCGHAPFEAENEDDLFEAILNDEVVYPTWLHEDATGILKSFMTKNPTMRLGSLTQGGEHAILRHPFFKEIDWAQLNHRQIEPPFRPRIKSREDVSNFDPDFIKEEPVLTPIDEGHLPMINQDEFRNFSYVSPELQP
Ribosomal protein S6 kinase alpha-6 (Homo sapiens), sequence (Q9UK32 whole entry, the tested form may be a part): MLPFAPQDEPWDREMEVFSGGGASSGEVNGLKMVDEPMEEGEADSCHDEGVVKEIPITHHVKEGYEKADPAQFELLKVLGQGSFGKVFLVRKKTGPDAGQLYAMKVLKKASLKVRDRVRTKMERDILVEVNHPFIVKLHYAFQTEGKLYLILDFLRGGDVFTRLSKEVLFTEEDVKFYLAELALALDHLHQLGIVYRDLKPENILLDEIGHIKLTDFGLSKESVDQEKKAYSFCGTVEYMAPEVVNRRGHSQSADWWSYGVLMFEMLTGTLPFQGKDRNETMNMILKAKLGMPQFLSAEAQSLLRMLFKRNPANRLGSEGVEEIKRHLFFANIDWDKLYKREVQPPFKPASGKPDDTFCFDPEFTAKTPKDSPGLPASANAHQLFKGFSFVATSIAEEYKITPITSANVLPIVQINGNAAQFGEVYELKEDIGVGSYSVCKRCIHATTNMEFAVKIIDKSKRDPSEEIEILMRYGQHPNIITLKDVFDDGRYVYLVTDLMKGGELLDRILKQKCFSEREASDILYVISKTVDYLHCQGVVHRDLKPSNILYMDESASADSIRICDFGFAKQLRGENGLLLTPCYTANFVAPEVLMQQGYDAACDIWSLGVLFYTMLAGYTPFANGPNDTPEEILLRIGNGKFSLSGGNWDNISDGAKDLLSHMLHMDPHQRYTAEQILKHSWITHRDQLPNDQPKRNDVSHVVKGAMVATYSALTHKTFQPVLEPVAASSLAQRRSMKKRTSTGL
Serine/threonine-protein kinase Nek2 (Homo sapiens), sequence (P51955 whole entry, the tested form may be a part): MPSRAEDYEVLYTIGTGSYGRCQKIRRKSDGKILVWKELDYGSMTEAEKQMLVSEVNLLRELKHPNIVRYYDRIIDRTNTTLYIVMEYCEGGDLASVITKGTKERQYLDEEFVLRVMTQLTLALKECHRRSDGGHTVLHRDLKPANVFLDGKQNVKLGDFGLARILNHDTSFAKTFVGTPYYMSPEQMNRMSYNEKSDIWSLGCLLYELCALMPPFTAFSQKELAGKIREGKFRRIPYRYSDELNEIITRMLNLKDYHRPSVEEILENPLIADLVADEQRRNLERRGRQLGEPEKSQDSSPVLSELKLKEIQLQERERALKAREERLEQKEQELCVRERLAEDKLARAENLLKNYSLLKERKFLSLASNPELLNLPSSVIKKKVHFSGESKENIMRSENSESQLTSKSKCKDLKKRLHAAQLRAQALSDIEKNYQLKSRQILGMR
High affinity nerve growth factor receptor (Homo sapiens), sequence (P04629 33-796 limits assumed): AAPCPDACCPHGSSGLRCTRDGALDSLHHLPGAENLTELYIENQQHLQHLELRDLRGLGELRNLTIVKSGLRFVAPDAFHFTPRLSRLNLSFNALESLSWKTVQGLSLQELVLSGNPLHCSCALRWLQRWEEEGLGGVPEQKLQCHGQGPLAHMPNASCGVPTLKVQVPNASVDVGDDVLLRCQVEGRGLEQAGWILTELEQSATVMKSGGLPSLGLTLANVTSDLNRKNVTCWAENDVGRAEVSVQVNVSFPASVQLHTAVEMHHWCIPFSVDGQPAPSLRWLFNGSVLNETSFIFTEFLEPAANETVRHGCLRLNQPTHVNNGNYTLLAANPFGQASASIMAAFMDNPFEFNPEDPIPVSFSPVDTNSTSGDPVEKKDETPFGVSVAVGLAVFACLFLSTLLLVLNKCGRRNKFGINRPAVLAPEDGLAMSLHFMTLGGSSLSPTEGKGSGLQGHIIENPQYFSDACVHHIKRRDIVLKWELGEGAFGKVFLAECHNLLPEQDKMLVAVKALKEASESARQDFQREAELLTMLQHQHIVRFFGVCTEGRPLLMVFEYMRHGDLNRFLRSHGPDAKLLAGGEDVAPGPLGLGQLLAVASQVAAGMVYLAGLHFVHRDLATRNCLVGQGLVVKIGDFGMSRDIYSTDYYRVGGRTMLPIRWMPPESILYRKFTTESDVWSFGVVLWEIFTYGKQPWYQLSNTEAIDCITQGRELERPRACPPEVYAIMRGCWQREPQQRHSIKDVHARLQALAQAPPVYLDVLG
Serine/threonine-protein kinase PAK 6 (Homo sapiens), sequence (Q9NQU5 whole entry, looked up, canonical isoform): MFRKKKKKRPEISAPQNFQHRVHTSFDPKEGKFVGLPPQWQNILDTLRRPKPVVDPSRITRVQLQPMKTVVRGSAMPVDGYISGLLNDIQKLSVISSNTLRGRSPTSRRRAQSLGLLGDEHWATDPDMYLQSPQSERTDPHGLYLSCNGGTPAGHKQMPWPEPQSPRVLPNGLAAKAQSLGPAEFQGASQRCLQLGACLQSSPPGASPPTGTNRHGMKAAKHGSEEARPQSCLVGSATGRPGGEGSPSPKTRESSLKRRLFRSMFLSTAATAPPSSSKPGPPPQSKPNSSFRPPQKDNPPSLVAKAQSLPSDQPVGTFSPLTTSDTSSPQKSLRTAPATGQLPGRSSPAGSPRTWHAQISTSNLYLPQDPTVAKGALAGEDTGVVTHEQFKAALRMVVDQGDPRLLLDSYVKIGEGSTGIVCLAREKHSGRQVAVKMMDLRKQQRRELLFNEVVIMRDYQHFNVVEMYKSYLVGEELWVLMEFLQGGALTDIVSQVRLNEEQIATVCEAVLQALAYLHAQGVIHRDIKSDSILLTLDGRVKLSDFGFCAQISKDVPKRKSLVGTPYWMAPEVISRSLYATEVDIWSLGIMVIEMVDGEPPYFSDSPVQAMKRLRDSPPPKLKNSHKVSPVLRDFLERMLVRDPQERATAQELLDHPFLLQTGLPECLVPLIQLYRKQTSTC
Dual specificity mitogen-activated protein kinase kinase 6 (Homo sapiens), sequence (P52564 whole entry): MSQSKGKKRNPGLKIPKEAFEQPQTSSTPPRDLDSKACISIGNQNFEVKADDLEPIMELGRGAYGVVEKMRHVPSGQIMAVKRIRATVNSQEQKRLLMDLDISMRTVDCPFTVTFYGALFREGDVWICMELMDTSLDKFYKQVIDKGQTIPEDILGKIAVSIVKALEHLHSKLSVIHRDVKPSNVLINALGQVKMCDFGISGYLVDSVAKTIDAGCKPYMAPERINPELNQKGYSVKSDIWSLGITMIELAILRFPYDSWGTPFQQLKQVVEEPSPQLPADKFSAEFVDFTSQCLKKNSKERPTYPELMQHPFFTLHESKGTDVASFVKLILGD

Cc1ccc2c(Nc3ccc(Cl)cc3)nccc2c1Nc1ncccc1-c1ncnc2[nH]cnc12.Cl.Cl.Cl
IC50 [1]: 1000 nM
IC50 [2]: 83 nM
clearance [3]: 6.67 mL/min/kg
Activity [4]: 96%
Activity [5]: 100%
Activity [6]: 90%
Activity [7]: 100%
Activity [8]: 100%
Activity [9]: 100%
Activity [10]: 100%
Activity [11]: 33%
Activity [12]: 100%
Activity [13]: 0.25%
Activity [14]: 100%
Activity [15]: 65%
Activity [16]: 100%
Activity [17]: 81%
Activity [18]: 86%
Activity [19]: 100%
Activity [20]: 100%
Activity [21]: 90%
Activity [22]: 100%
Activity [23]: 99%
ED50 (A-375): 1.3 mg/kg
Activity [24]: 51%
Activity [25]: 61%
Activity [26]: 100%
Activity [27]: 100%
Activity [28]: 100%
Activity [29]: 100%
Activity [30]: 100%
Activity [31]: 86%
Activity [32]: 100%
Activity [33]: 100%
Activity [34]: 15%
Activity [35]: 97%
Activity [36]: 84%
Activity [37]: 100%
